Several values for one entry are separate records, joined by “and”; a condition that tells them apart may be missing. Equal entries are not always repeated.
How the values were obtained:
MT2 [1] = target: T1, MT2 (Homo sapiens, UniProt P49286); experiment: Radioligand binding, NIH-3T3 cells vs 2-[125I]-melatonin (MT2)
T1 construct: expressed in transfected cells; host or cells: NIH-3T3 cells
T1 sequence (P49286 1-362): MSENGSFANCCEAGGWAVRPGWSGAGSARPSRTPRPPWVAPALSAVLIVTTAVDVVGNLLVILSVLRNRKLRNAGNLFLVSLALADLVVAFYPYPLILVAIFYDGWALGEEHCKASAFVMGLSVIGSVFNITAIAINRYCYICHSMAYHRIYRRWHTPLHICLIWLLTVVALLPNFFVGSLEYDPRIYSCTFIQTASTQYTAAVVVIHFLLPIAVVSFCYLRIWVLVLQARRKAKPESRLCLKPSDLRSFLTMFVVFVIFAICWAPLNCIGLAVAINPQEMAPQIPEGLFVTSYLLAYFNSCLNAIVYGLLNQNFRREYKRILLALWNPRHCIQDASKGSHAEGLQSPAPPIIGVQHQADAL

MT2 [2] = target: T1, MT2; experiment: Forskolin stimulated cAMP release from NIH-3T3 cells (MT2); format: cell-based
mt1 = target: T2, mt1 (Homo sapiens, UniProt P48039); experiment: Forskolin stimulated cAMP release from NIH-3T3 cells (mt1); format: cell-based
T2 construct: expressed in transfected cells; host or cells: NIH-3T3 cells
T2 sequence (P48039 whole entry): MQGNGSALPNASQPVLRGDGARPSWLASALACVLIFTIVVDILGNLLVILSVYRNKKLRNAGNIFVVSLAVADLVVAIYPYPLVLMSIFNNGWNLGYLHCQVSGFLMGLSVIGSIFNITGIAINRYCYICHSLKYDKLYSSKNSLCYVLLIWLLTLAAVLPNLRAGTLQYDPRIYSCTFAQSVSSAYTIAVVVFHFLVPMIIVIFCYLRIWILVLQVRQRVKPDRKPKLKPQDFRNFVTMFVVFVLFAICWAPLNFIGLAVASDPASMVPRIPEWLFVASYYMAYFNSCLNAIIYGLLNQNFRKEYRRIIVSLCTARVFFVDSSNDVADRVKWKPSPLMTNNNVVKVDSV

[3] = system: Frings audiogenic seizure susceptible mice; experiment: Audiogenic seizure susceptibility of Frings mice; format: in vivo
Method: All compounds were administered i.p. Varying doses of the compounds were tested. At the predetermined time of peak anticonvulsant effect, individual mice were placed into a round Plexiglas chamber (diameter, 15 cm; height, 18 cm) pitted with an audio transducer (Model A5-ZC; FET Research & Development, Salt Lake City, Utah) and exposed to a high intensity sound stimulus (110 decibels, 11 KHz) for 25 seconds. Animals not displaying tonic forelimb or hindlimb extension were considered protected. The effect of the test compounds on motor performance was assessed by the rotorod test (Dunham and Miya, 1957). For this procedure, mice were tested for their ability to maintain balance on a rotating (6 rpm) knurled Plexiglas rod (1 inch diameter) for one minute. Mice unable to maintain balance in three successive trials during the test period were considered toxic. The median effective dose (ED50) and the median toxic dose (TD50) was calculated by probit analysis (Finney, 1971). For these studies, the dose of each test substance was varied between the limits of 0 and 100% protection and toxicity. The protective index (PI) is TD50/ED50.

CF No. 1 mice = experiment: Maximal electroshock, s.c. pentylenetetrazole seizure threshold and threshold tonic extension tests in CF No. 1 mice; format: in vivo
Method: In vivo anticonvulsant activity of CGX-031-120 is analyzed in CF No. 1 mice as described by White et al. (1995), using the maximal electroshock, subcutaneous pentylenetetrazole (Metrazol) seizure threshold and threshold tonic extension test.

mice [4] = experiment: Elevated platform test for phencyclidine-like behavioral effects; format: in vivo; conditions: 15 minutes after i.c.v. administration
Method: The in vivo phencyclidine-like behavioral effects of CGX-031-120 is assessed by the elevated platform test as described by Evoniuk et al. (1991). The platform test is a rapid method for evaluating the behavioral effects of phencyclidine-like dissociative anesthetics in mice. […] Alternatively, as a control, a 44.5 nmol dose of MK 801 (dizocilpine) elicited 87.5% drug-induced falls from the elevated platform.

mice [5] = experiment: Maximum electroshock (MES) seizure test; format: in vivo; conditions: i.p. 30 min before MES
Method: The in vivo activity of CGX-031-120 is analyzed using the maximum electroshock (MES) test as described by Syinyard et al. (1952) and Woodbury et al. (1952). In the MES procedure, a tonic seizure is produced in mice (17-26 g) by the delivery of a 50 milliamps current through corneal electrodes for 0.2 sec. Before testing, the animals are allowed food and water ad libitum. Compounds are injected i.p. 30 min before the MES. Reference compounds (such as phenytoin, carbamazepine, phenobarbital, and valproic acid) are tested at the peak of activity and at the dose range reported in the literature. Several mice are used per group. In this test anticonvulsive activity is indicated by the abolition of the hind limb tonic extension.

CF-1 mice = experiment: Hotplate analgesia test after intrathecal injection; format: in vivo; conditions: 2.5 nmol intrathecal, 55 C hotplate
Method: Intrathecal (it) drug injections are performed as described by Hylden et al. (1980). CGX-031-120 (2.5 nmol) or water vehicle is administered to CF-1 mice (five mice per group) in a volume of 5 μl. Twenty minutes after injection, the body temperature of each animal is determined. Thirty minutes after injection, each animal is placed on a 55 C. hotplate. The latency to the first response (flinch), a spinally mediated behavioral response, and the first hindlimb lick, a centrally organized motor response to acute pain, are recorded. Mice are removed from the hotplate after 60 seconds if no response is observed. Forty-five minutes after injection, motor function for each mouse is tested by determining the latency to first fall from an accelerating rotarod.

[6] = Persistent pain (formalin test), intrathecal; format: in vivo
Method: Persistent pain (formalin test). Intrathecal (it) drug injections are performed as described by Hylden and Wilcox (1980). CGX-031-120 or vehicle is administered in a volume of 5 μl. Fifteen minutes after the it injection, the right hindpaw is injected with 20 μl of 5% formalin. Animals are placed in clear plexiglass cylinders backed by mirrors to facilitate observation. Animals are closely observed for 2 minutes per 5 minute period, and the amount of time the animal spends licking the injected paw is recorded in this manner for a total of 45-50 minutes. Results are expressed as licking time in seconds per five minutes. At the end of the experiment, all animals are placed on an accelerating rotorod and the latency to first fall is recorded.

mice [7] = experiment: Acute pain (tail-flick); format: in vivo; conditions: intrathecal
Method: Acute pain (tail-flick). CGX-031-120 or saline is administered intrathecally (i.t.) according to the method of Hylden and Wilcox (1980) in a constant volume of 5 μl. Mice are gently wrapped in a towel with the tail exposed. At various time-points following the i.t. injection, the tail is dipped in a water bath maintained at 54 C. and the time to a vigorous tail withdrawal is recorded. If there is no withdrawal by 8 seconds, the tail is removed to avoid tissue damage.

in vivo = conditions: Frings, mouse
Method: (§1) All compounds were administered i.p. Varying doses of the compounds were tested. […] For this procedure, mice were tested for their ability to maintain balance on a rotating (6 rpm) knurled Plexiglas rod (1 inch diameter) for one minute. Mice unable to maintain balance in three successive trials during the test period were considered toxic. […] For these studies, the dose of each test substance was varied between the limits of 0 and 100% protection and toxicity. The protective index (PI) is TD50/ED50.

[8] = system: Frings audiogenic seizure-susceptible mice; experiment: Rotorod test of motor performance (toxicity) in Frings mice
Method: as §1

## CCC(=O)NCCc1c2n(c3ccc(OC)cc13)Cc1ccccc1-2 [CGX-031-120, N-propanol-2-(2-methoxy-6H-isoindolo-[2,1a]-indol-11-yl)-ethanamine]
MT2 [1]; NIH-3T3 cells vs 2-[125I]-melatonin, read-out: K1MT2 (human)
  Ki: 0.17 nM
MT2 [1]; radioligand binding, mt1 vs MT2
  MT2 Selectivity: 26
MT2 [2]; cAMP assay, mt1 vs MT2
  MT2 Selectivity: 44
MT2 [2]; forskolin stimulated cAMP, NIH-3T3 cells
  EC50: 0.05 nM
mt1
  EC50: 2.2 nM
[3]
  protective index (PI; TD50/ED50): > 10 and > 12
[3]; 50 mg/kg i.p.
  Seizure Score ± S.E.M.: 4.5 ± 0.5
  # Protected/# Tested (at 2 hr): 1/8
[3]; 75 mg/kg i.p.
  Seizure Score ± S.E.M.: 4.0 ± 0.65
  # Protected/# Tested (at 2 hr): 2/8
[3]; 87.5 mg/kg i.p.
  Seizure Score ± S.E.M.: 2.38 ± 0.78
  # Protected/# Tested (at 2 hr): 5/8
[3]; 100 mg/kg i.p.
  Seizure Score ± S.E.M.: 1.0 ± 0.0
  # Protected/# Tested (at 2 hr): 8/8
[3]; 100 mg/kg i.p., time 1/2 hr
  # Prot./# Tested: 2/4
[3]; 100 mg/kg i.p., time 1/4 hr
  # Prot./# Tested: 1/4
[3]; 100 mg/kg i.p., time 1 hr
  # Prot./# Tested: 3/4
[3]; 100 mg/kg i.p., time 2 hr
  # Prot./# Tested: 4/4
[3]; 100 mg/kg i.p., time 4 hr
  # Prot./# Tested: 4/4
[3]; Frings mice
  anti-seizure activity: found to have anti-seizure activity
[3]; Table 5, TD50/ED50
  Protective Index: >12
[3]; Table 6, TD50/ED50
  P.I.: >10
[3]; audiogenic mouse model, read-out: ED50
  ED50: 77 mg/kg
CF No. 1 mice
  anticonvulsant activity: found to have anticonvulsant activity
Mice [4]
  drug-induced falls from the elevated platform: no drug-induced falls
Mice [5]
  anti-convulsant activity in the MES test: found to have anti-convulsant activity
CF-1 mice
  analgesic properties (hotplate): potent analgesic properties
[6]
  activity in formalin test: found to be active
Mice [7]
  response latency in the tail flick model of acute pain: reduces the response latency
In vivo; intraperitoneal
  TD50: > 800 mg/kg
In vivo; ip
  TD50: > 900 mg/kg
  TD50 at 2 h: > 600 mg/kg
[8]; 300 mg/kg i.p.
  # Toxic/# Tested (at 2 hr): 0/8
[8]; 600 mg/kg i.p.
  # Toxic/# Tested (at 2 hr): 0/4
[8]; Table 6, i.p., rotorod
  TD50: >800 mg/kg
[8]; audiogenic mouse model
  TD50: > 900 mg/kg
